Assay results taken from patent US9192680B2, “Pharmaceutical compounds” (APOSENSE LTD., priority 2010, dated 2015).
Read-outs that look alike come from different tables or passages of the source.

Assays:
A375-melanoma cells = experiment: Cytotoxicity in cultured A375-melanoma cells (XTT cell viability); type: cell-based; conditions: Homo sapiens, read-out: IC50 (drug concentration that inhibited 50% of the cell growth)
Protocol: Cells were grown in RPMI 1640 (Gibco, UK) supplemented with 10% FBS (Gibco, UK) 2 mM of L-glutamin (Gibco, UK), 20 mM HEPES buffer (Beit-Haemek, Israel), 100 units/ml of penicillin, and 100 μg/ml of streptomycin (Gibco, UK). Cells were cultured in humidified atmosphere containing 5% CO2 at 37° C. Medium was routinely changed twice a week, and cells were sub-cultured with 0.25% trypsin/EDTA (Beit-Haemek, Israel) when reaching 85% confluence.
ATT-11T was produced by Aptuit-Laurus (India). The compound was dissolved in DMSO. […] The cells were incubated for 24 hours at 37° C. with serial dilutions of ATT-11T (or CPT 11), dissolved in growing medium. Cell viability was then determined, using the XTT reagent (Beit-Haemek, Israel). At the end of the incubation period, tetrazolium dye was added, and formation of a colored product formazan was measured at 450 nm using a microplate reader (ELx800, Bio-Tek instruments Inc.). Cell viability vs. drug concentration was plotted, and data were fitted with a non-linear regression analysis using GraphPad prisma ver.5.0 software. […]

A375 melanoma tumors = experiment: Xenograft model of melanoma: tumor regression, growth inhibition and growth delay; type: in vivo, athymic nude mice; conditions: for Tumor volume inhibition (TVI): one week after the last dose; for tumor growth at day 30 after the last dose: 58 days after tumor cell inoculation; for growth inhibition: one week after last administration
Protocol: Tumor-bearing mice, injected only with the vehicle solution served as controls.
ATT11-T (Aptuit-Luarus, India) was administered in a vehicle as described above. Tumor-bearing mice injected only with the vehicle solution served as controls. […] Tumor volume was evaluated as described above.
Drug-induced delay in tumor growth was assessed by two measures: (i). Tumor volume inhibition (TVI %) at one week after the last treatment in treated versus control tumors, which was calculated according to the Formula TVI (%)=(1-T/C)×100, where T and C are the tumor volume of the treated and control groups, respectively; and (ii). Tumor growth delay (TGD), assessed as the time period (days) of treatment-induced delay in tumor reaching a pre-determined volume of 3,500 mm^3, as compared to the vehicle-treated controls.

[1] = Adverse effects and body weight in A375 tumor-bearing mice; type: in vivo, nude mice; conditions: for gain of initial body weight: day 1 of treatment up to day 29 of inoculation
Protocol: For the evaluation of potential adverse effects of ATT-11T, nude mice, bearing the A375 melanoma tumors and treated with ATT-11T as described above, were monitored for adverse effects immediacy after drug administration, and also twice a week, through one day after last dose. The evaluation protocol consisted of gross observation, registration of abnormal signs, and determination of body weight. Potential body weight loss (BWL) was calculated as % BWL=100−(BWdays/BWday1×100), where day 1 is the first day of treatment and day x is the day of assessment thereafter.

[2] = Pharmacokinetics after single intravenous administration; type: in vivo, beagle dogs; conditions: 6 mg/kg single i.v.
Protocol: The stock solution was diluted 10-fold in 10% bovine serum albumin solution in 0.1M sodium phosphate buffer (pH 5.8) and mixed by vortex until a homogeneous emulsion was obtained. […] Fresh formulations of both drugs were prepared prior to each administration, and the drugs were administrated by a slow bolus injection within approximately 3 minutes, at a dose of 6 mg/kg (1.2 ml/kg), adjusted to the individual animal body weight.
Plasma was separated by centrifugation, and stored at −70° C. until HPLC analysis. WinNonlin™ software was used for the analysis of the pharmacokinetic data.

[3] = tested on: SW-620 colorectal carcinoma tumors; type: in vivo, athymic nude mice; conditions: for tumor growth inhibition: one week after the last administration
Protocol: Drug treatment was initiated on day 11, when tumors reached an average volume of 119 mm^3 ATT-11T was administered in a vehicle comprising 5% DMSO, 5% NMP, 10% ETOH, 40% PEG-400 and 40% PG. […] The drugs were administered intraperitoneally.

[4] = tested on: OVCAR-3 ovarian carcinoma tumors; experiment: Xenograft model of ovarian carcinoma; type: in vivo, athymic nude mice; conditions: for growth inhibition vs. the control group: one week post last administration
Description: Tumor-bearing mice, injected only with the vehicle solution served as the control group.

[5] = Maximal tolerated dose (MTD); conditions: female, athymic nude, mouse, in vivo, ip; intraperitoneally, once a week for three weeks, nude mice; read-out: maximal tolerate dose (MTD)
Protocol: Drug treatment was initiated on day 11, when tumors reached an average volume of 119 mm^3 ATT-11T was administered in a vehicle comprising 5% DMSO, 5% NMP, 10% ETOH, 40% PEG-400 and 40% PG. […] . […] The drugs were administered intraperitoneally.

[6] = tested on: Mia-PaCa pancreatic carcinoma tumors; experiment: Xenograft model of pancreatic carcinoma
H-82 SCLC tumors = experiment: Xenograft model of small-cell lung carcinoma
[7] = 20 mg/kg i.v. once a week for 3 weeks
[8] = 40 mg/kg i.v. once a week for 3 weeks

For `CCc1c2c(nc3ccc(OC(=O)N4CCC(CCC(C)(COC(C)(C)C)COC(C)(C)C)CC4)cc13)-c1cc3c(c(=O)n1C2)COC(=O)C3(O)CC` (centres unmarked) [ATT-11T], the IC50 (A375-melanoma cells; A-375, 24 h) was 3.3 µM, the “Tumor volume inhibition (TVI)” value (A375 melanoma tumors; 5 mg/kg i.v. twice a week for three weeks) was 100% and the “tumor growth at day 30 after the last dose” value (A375 melanoma tumors; 5 mg/kg) was “little”. For the same molecule, the “Tumor volume inhibition (TVI)” value (A375 melanoma tumors; 20 mg/kg i.v. twice a week for three weeks) was 100%, the “tumor growth at day 30 after the last dose” value (A375 melanoma tumors; 20 mg/kg) was “no growth” and the growth inhibition (A375 melanoma tumors; ATT-11T 5 mg/kg i.v. three times a week for three weeks) was 100%. For the same molecule, the growth inhibition (A375 melanoma tumors; ATT-11T 20 mg/kg i.v. three times a week for three weeks) was 100%, the “gain of initial body weight” value ([1]; 5 mg/kg) was 7% and the “gain of initial body weight” value ([1]; 20 mg/kg) was 5%. The “tolerability (adverse effects, weight loss)” value ([1]; both doses, 5 and 20 mg/kg) was “well-tolerated”, the “plasma level of derived SN-38 at 48 hours after administration” value ([2]; dogs) was “still detectable” and the “AUC of ATT-11T relative to that of CPT-11” value ([2]; dogs, parent drug) was 4 fold. The “increase in t1/2 of ATT-11T over CPT-11” value ([2]; dogs, parent drug) was 3.8 fold, the half-life ([2]; dog, in vivo, iv, female beagle dogs, read-out: plasma half-life (t1/2) of the parent drug (converted)) was 25.6 h and the “tumor growth 136 days post last treatment (161 days post tumor inoculation)” value ([3]; MTD 150 mg/kg i.p.) was “no tumor growth”. For the same molecule, the tumor growth inhibition ([3]; MTD 150 mg/kg intraperitoneally once a week for three weeks) was 100%, the “growth inhibition vs. the control group” value ([4]; 20 mg/kg i.v. once a week for three weeks) was 99% and the average tumor volume ([4]; 20 mg/kg i.v., day 42 (21 days post last dose)) was 46 mm^3. The MTD at 3 weeks [5] was 150 mg/kg, the “% tumor growth delay (% TGD) to 1,000 mm^3” value (shortened to “% tumor growth delay (% TGD)”) [6, 7] was 86% and the “days post tumor inoculation to reach average tumor volume of 1,000 mm^3” value [6, 7] was 39 days. The “tumor growth inhibition (TGI)” value ([6]; 20 mg/kg i.v. once a week for 3 weeks, one week after the last administration) was 48%, the “% tumor growth delay (% TGD)” value [6, 8] was 152% and the “days post tumor inoculation to reach average tumor volume of 1,000 mm^3” value [6, 8] was 53 days. For the same molecule, the “tumor growth inhibition (TGI) vs. control tumors” value ([6]; 40 mg/kg i.v. once a week for 3 weeks, one week after the last administration) was 86% and the “tumor growth inhibition vs. the control group” value (H-82 SCLC tumors; 40 mg/kg i.v. once a week for three weeks) was 92%.
In the case of `CCc1c2c(nc3ccc(OC(=O)N4CCC(N5CCCCC5)CC4)cc13)-c1cc3c(c(=O)n1C2)COC(=O)[C@]3(O)CC` [CPT-11, irinotecan, reference compound], the IC50 (A375-melanoma cells; A-375, A375 cells, 24 hours incubation, XTT) is reported as 10.1 µM, the “plasma level of derived SN-38 at 24 hours after administration” value ([2]; dogs) is reported as “below detection level” and the tumor growth inhibition ([3]; […]) is reported as 85%. For the same molecule, the “growth inhibition vs. the control group” value ([4]; 18 mg/kg i.v. once a week for three weeks) was 83%, the MTD [5] was 100 mg/kg and the “% tumor growth delay (% TGD)” value ([6]; 18 mg/kg i.v. (equimolar to 20 mg/kg ATT-11T)) was 43%. The “% tumor growth delay (% TGD)” value ([6]; 36 mg/kg i.v. (equimolar to 40 mg/kg ATT-11T)) was 76%, the “tumor growth inhibition (TGI) vs. control tumors” value ([6]; 36 mg/kg i.v. once a week for 3 weeks, one week after the last administration) was 42% and the “tumor growth inhibition vs. the control group” value (H-82 SCLC tumors; 36 mg/kg i.v. once a week for three weeks) was 67%.
